Measurements as given in US20240174690A1, “ANNULATED 2-AMINO-3-CYANO THIOPHENES AND DERIVATIVES FOR THE TREATMENT OF CANCER” (BOEHRINGER INGELHEIM INTERNATIONAL GMBH, priority 2021, published 2024).

Key:
KRAS (G12D)::SOS1 = KRAS (G12D)::SOS1 (Homo sapiens (Human), UniProt P01116, G12D); test: KRAS::SOS1 AlphaScreen binding assay, KRAS G12D
How it was run: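 AlphaScreen measurement of compound disruption of biotinylated, GDP-loaded KRAS 1-169 (10 nM; G12C 7.5 nM) binding to GST-SOS1 564-1049 (5 nM with G12D/G12C, 10 nM otherwise), with 10 μM GDP in PBS/0.1% BSA/0.05% Tween 20. Timing was 30 min compound preincubation, then 60 min with beads at room temperature; top concentration 100 μM, 4-parameter IC50.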

[1] = tested on: KRAS G12D-dependent Ba/F3 cells; test: Ba/F3 proliferation assay, KRAS G12D; format: cell-based; details: AlamarBlue
How it was run: (§1)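 IL-3-independent Ba/F3 lines driven by transduced KRAS G12C, G12D or G12V, with puromycin withdrawn about ten days before testing. Viability after compound treatment measured by AlamarBlue fluorescence in duplicate, and values derived by curve fitting.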

[2] = tested on: KRAS G12C-dependent Ba/F3 cells; test: Ba/F3 proliferation assay, KRAS G12C; format: cell-based; details: AlamarBlue
How it was run: as §1

[3] = tested on: KRAS G12V-dependent Ba/F3 cells; test: Ba/F3 proliferation assay, KRAS G12V; format: cell-based; details: AlamarBlue;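 also: proliferation IC50 in KRAS G12V-dependent Ba/F3 cells read by AlamarBlue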
How it was run: as §1

SK-CO-1 cells = test: SK-CO-1 CTG proliferation assay (120 h) (CRC, G12V); format: cell-based; details: SK-CO-1 cells (CRC, G12V), CTG 120 h
How it was run: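 Compound exposure lasted 120 h in KRAS G12V SK-CO-1 cells seeded overnight at 500 cells/well in 10% FCS EMEM. CellTiter-Glo RLU normalised to DMSO wells gave percent viability, and a four-parameter model fit yielded IC50.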

Chain of KRAS (G12D)::SOS1 (P01116 other isoform, or with tags, fused parts or gaps G12D): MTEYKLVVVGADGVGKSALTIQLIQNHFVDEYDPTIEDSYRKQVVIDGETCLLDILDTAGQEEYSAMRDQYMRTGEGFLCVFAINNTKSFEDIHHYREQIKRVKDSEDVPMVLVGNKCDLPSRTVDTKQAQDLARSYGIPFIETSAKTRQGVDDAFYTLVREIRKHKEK

| Structure (SMILES) | IC50 (KRAS (G12D)::SOS1) | IC50 ([1]; Mus musculus, BaF3, 72 h) | IC50 ([2]; Mus musculus, BaF3, 72 h) | IC50 ([3]; Mus musculus, BaF3, 72 h) | IC50 (SK-CO-1 cells; Homo sapiens) | IC50 ([1]; 72 h) | IC50 ([2]; 72 h) | IC50 ([3]; 72 h) | IC50 (SK-CO-1 cells) |
| --- | --- | --- | --- | --- | --- | --- | --- | --- | --- |
| C[C@H](Oc1cc(-c2ccn(Cc3ncco3)n2)nc(-c2noc3c2CCC[C@@]32CCCc3sc(N)c(C#N)c32)n1)[C@@H]1CCCN1C [II-128] | 2 nM | 83 nM | 10 nM | 31 nM | 47 nM | – | – | – | – |
| C[C@H]1CNCCCN1c1cc(-c2ccn(C)n2)nc(-c2noc3c2CCC[C@@]32CCCc3sc(N)c(C#N)c32)n1 [II-140] | 22 nM | 2240 nM | 1020 nM | – | 292 nM | – | – | – | – |
| C[C@H](Oc1cc(N2CC3COCC(C2)N3)nc(-c2noc3c2CCC[C@@]32CCCc3sc(N)c(C#N)c32)n1)[C@@H]1CCCN1C [II-160] | 2 nM | 429 nM | 1720 nM | 2010 nM | 6850 nM | – | – | – | – |
| C[C@H]1CNCCCN1c1nc(-c2onc3c2CCC[C@@]32CCCc3sc(N)c(C#N)c32)cc(C(F)(F)F)n1 [I-15] | 348 nM | 1130 nM | 930 nM | – | – | – | – | – | – |
| C[C@H](Oc1cc(N2Cc3cnn(C)c3C2)nc(-c2onc3c2CCC[C@@]32CCCc3sc(N)c(C#N)c32)n1)[C@@H]1CCCN1C [I-19] | 12 nM | 165 nM | 76 nM | 23 nM | 56 nM | – | – | – | – |
| C[C@H](Oc1cc(-n2nccc2-c2ccncc2)nc(-c2noc3c2CCC[C@@]32CCCc3sc(N)c(C#N)c32)n1)[C@@H]1CCCN1C [II-131] | 6 nM | 145 nM | 16 nM | 19 nM | 90 nM | – | – | – | – |
| C[C@H](Oc1cc(-n2cc3c(n2)CCN(C)C3)nc(-c2noc3c2CCC[C@@]32CCCc3sc(N)c(C#N)c32)n1)[C@@H]1CCCN1C [II-141] | 2 nM | 14 nM | 134 nM | 170 nM | 436 nM | – | – | – | – |
| C[C@H](Oc1cc(-c2ccn(C[C@H]3CCOC3)n2)nc(-c2noc3c2CCC[C@@]32CCCc3sc(N)c(C#N)c32)n1)[C@@H]1CCCN1C [II-129] | 3 nM | 92 nM | 11 nM | 9 nM | 66 nM | – | – | – | – |
| C[C@H](Oc1cc(N2CCNC3(COC3)C2)nc(-c2noc3c2CCC[C@@]32CCCc3sc(N)c(C#N)c32)n1)[C@@H]1C[C@@H](F)CN1C [II-150] | 1 nM | 3 nM | 55 nM | 77 nM | 325 nM | – | – | – | – |
| C[C@H](Oc1cc(N2CCNC[C@]23CCOC3)nc(-c2onc3c2CCC[C@@]32CCCc3sc(N)c(C#N)c32)n1)[C@@H]1CCCN1C [I-12] | 1 nM | 4 nM | 224 nM | 343 nM | 710 nM | – | – | – | – |
| C[C@H](Oc1nc(-c2noc3c2CCC[C@@]32CCCc3sc(N)c(C#N)c32)nc(N2CCNC3(CC3)C2)c1F)[C@@H]1C[C@@H](F)CN1C [II-155] | 1 nM | 6 nM | 169 nM | 185 nM | 263 nM | – | – | – | – |
| C[C@H](Oc1cc(-n2ccc(C(=O)N[C@H]3CCOC3)n2)nc(-c2noc3c2CCC[C@@]32CCCc3sc(N)c(C#N)c32)n1)[C@@H]1CCCN1C [II-193] | 1 nM | – | – | – | – | 9 nM | 2 nM | 2 nM | 3 nM |
| C[C@H](Oc1cc(-c2ccn(C)n2)nc(-c2noc3c2CCC[C@@]32CCCc3sc(N)c(C#N)c32)n1)[C@@H]1C[C@H](F)CN1C [II-144] | 14 nM | 4 nM | 2 nM | – | 130 nM | – | – | – | – |
| C[C@H](Oc1cc(-c2cn(C)nn2)nc(-c2onc3c2CCC[C@@]32CCCc3sc(N)c(C#N)c32)n1)[C@@H]1CCCN1C [I-16] | 2 nM | 32 nM | 21 nM | 9 nM | – | – | – | – | – |

The next lines start with results.

| IC50 (KRAS (G12D)::SOS1) | IC50 ([1]; Mus musculus, BaF3, 72 h) | IC50 ([2]; Mus musculus, BaF3, 72 h) | IC50 ([3]; Mus musculus, BaF3, 72 h) | IC50 (SK-CO-1 cells; Homo sapiens) | Structure (SMILES) | IC50 ([1]; 72 h) | IC50 ([2]; 72 h) | IC50 ([3]; 72 h) | IC50 (SK-CO-1 cells) |
| --- | --- | --- | --- | --- | --- | --- | --- | --- | --- |
| 1 nM | 16 nM | 5 nM | 3 nM | 9 nM | CC(C)NC(=O)Cc1ccn(-c2cc(O[C@@H](C)[C@@H]3CCCN3C)nc(-c3noc4c3CCC[C@@]43CCCc4sc(N)c(C#N)c43)n2)n1 [II-182] | – | – | – | – |
| 1 nM | 16 nM | 103 nM | 71 nM | 385 nM | C[C@H](Oc1cc(-n2cc3c(n2)CN(C)C3)nc(-c2noc3c2CCC[C@@]32CCCc3sc(N)c(C#N)c32)n1)[C@@H]1CCCN1C [II-174] | – | – | – | – |
| 1 nM | 4 nM | 1 nM | 1 nM | 3 nM | CO[C@H]1CCN(C)[C@@H]1[C@H](C)Oc1cc(-n2ccc(C(=O)N[C@H]3CCOC3)n2)nc(-c2noc3c2CCC[C@@]32CCCc3sc(N)c(C#N)c32)n1 [II-198] | – | – | – | – |
| 1 nM | 9 nM | 1 nM | 1 nM | 4 nM | CO[C@H]1CCN(C)[C@@H]1[C@H](C)Oc1cc(-n2ccc(C(=O)N[C@@H](C)c3ccccn3)n2)nc(-c2noc3c2CCC[C@@]32CCCc3sc(N)c(C#N)c32)n1 [II-196] | – | – | – | – |
| 2 nM | 28 nM | 9 nM | 8 nM | 45 nM | C[C@H](Oc1cc(-n2ccc(C3(O)COC3)n2)nc(-c2noc3c2CCC[C@@]32CCCc3sc(N)c(C#N)c32)n1)[C@@H]1CCCN1C [II-189] | – | – | – | – |
| 1 nM | 28 nM | 6 nM | 3 nM | 4 nM | C[C@H](Oc1cc(-n2ccc(-c3cn([C@@H]4CCOC4)nn3)n2)nc(-c2noc3c2CCC[C@@]32CCCc3sc(N)c(C#N)c32)n1)[C@@H]1CCCN1C [II-211] | – | – | – | – |
| 1 nM | 66 nM | 240 nM | 133 nM | 287 nM | C[C@H](Oc1cc(C2=CCNCC2)nc(-c2noc3c2CCC[C@@]32CCCc3sc(N)c(C#N)c32)n1)[C@@H]1CCCN1C [II-164] | – | – | – | – |
| 1 nM | 3 nM | 133 nM | 225 nM | 457 nM | CO[C@@H]1C[C@@H]([C@H](C)Oc2cc(N3CCNC4(CC4)C3)nc(-c3noc4c3CCC[C@@]43CCCc4sc(N)c(C#N)c43)n2)N(C)C1 [II-187] | – | – | – | – |
| 1 nM | 17 nM | 244 nM | 258 nM | 339 nM | C[C@H](Oc1nc(-c2noc3c2CCC[C@@]32CCCc3sc(N)c(C#N)c32)nc(N2C[C@H](C)NC3(CC3)C2)c1F)[C@@H]1C[C@@H](F)CN1C [II-157] | – | – | – | – |
| 1 nM | 51 nM | 296 nM | 678 nM | 805 nM | C[C@H](Oc1cc(N2C[C@H](C)N(C)[C@@H](C)C2)nc(-c2noc3c2CCC[C@@]32CCCc3sc(N)c(C#N)c32)n1)[C@@H]1CCCN1C [II-173] | – | – | – | – |
| 1 nM | 10 nM | 2 nM | – | 4 nM | C[C@H](Oc1cc(-n2ccc(-c3cn([C@H]4CCOC4)nn3)n2)nc(-c2noc3c2CCC[C@@]32CCCc3sc(N)c(C#N)c32)n1)[C@@H]1CCCN1C [II-212] | – | – | – | – |
| 1 nM | 16 nM | 3 nM | 3 nM | 17 nM | CO[C@H]1CCN(C)[C@@H]1[C@H](C)Oc1cc(-n2ccc(C(=O)N(C)C3COC3)n2)nc(-c2noc3c2CCC[C@@]32CCCc3sc(N)c(C#N)c32)n1 [II-199] | – | – | – | – |
| 2 nM | 59 nM | 6 nM | 4 nM | 12 nM | C[C@H](Oc1cc(-n2cc3ccn([C@@H]4CCOC4)c(=O)c3n2)nc(-c2noc3c2CCC[C@@]32CCCc3sc(N)c(C#N)c32)n1)[C@@H]1CCCN1C [II-203] | – | – | – | – |
| 1 nM | 23 nM | 2 nM | 2 nM | 3 nM | C[C@H](Oc1cc(-n2ccc(-c3cn(C4CCOCC4)nn3)n2)nc(-c2noc3c2CCC[C@@]32CCCc3sc(N)c(C#N)c32)n1)[C@@H]1CCCN1C [II-210] | – | – | – | – |
| 1 nM | 56 nM | 18 nM | 6 nM | 6 nM | C[C@H](Oc1cc(-n2cc3ccn([C@H]4CCOC4)c(=O)c3n2)nc(-c2noc3c2CCC[C@@]32CCCc3sc(N)c(C#N)c32)n1)[C@@H]1CCCN1C [II-202] | – | – | – | – |
| 1 nM | 1710 nM | 1900 nM | 1360 nM | 5350 nM | CNC1CCN(c2cc(O[C@@H](C)[C@@H]3CCCN3C)nc(-c3noc4c3CCC[C@@]43CCCc4sc(N)c(C#N)c43)n2)CC1 [II-214] | – | – | – | – |
| 1 nM | 13 nM | 2 nM | 2 nM | 4 nM | C[C@H](Oc1cc(-n2ccc(C(=O)N[C@@H]3CCOC3)n2)nc(-c2noc3c2CCC[C@@]32CCCc3sc(N)c(C#N)c32)n1)[C@@H]1CCCN1C [II-192] | – | – | – | – |
| 1 nM | 12 nM | 2 nM | 3 nM | 7 nM | CO[C@H]1CCN(C)[C@@H]1[C@H](C)Oc1cc(-n2ccc(CC(=O)NC(C)C)n2)nc(-c2noc3c2CCC[C@@]32CCCc3sc(N)c(C#N)c32)n1 [II-183] | – | – | – | – |
| 1 nM | 11 nM | 3 nM | – | 3 nM | C[C@H](NC(=O)c1ccn(-c2cc(O[C@@H](C)[C@@H]3CCCN3C)nc(-c3noc4c3CCC[C@@]43CCCc4sc(N)c(C#N)c43)n2)n1)c1ccccn1 [II-191] | – | – | – | – |
